Results reported in patent US9522123B2, “Use of one or a combination of phyto-cannabinoids in the treatment of epilepsy” (GW Pharma Limited, priority 2009, dated 2016).

Assays:
PTZ-induced seizures = test: PTZ (pentylenetetrazole)-induced model of generalised seizures; type: in vivo, rat
[1] = system: pilocarpine-induced seizures; test: Pilocarpine-induced model of temporal lobe seizures; type: in vivo, rat; details: pilocarpine 380 mg/kg
Description: Pure THCV was injected intra-peritoneally (IP) in the standard vehicle (1:1:18 ethanol:Cremophor:0.9% w/v NaCl) at doses of 0.025, 0.25 and 2.5 mg/kg alongside animals that received vehicle alone at a matched volume (n≧14 for each group). 15 minutes later methylscopolamine (1 mg/kg; to reduce peripheral muscarinic effects of pilocarpine) was administered followed, 45 minutes later by pilocarpine (380 mg/kg, IP) administration.
Pure CBD was injected intra-peritoneally (IP) in the standard vehicle (1:1:18 ethanol:Cremophor:0.9% w/v NaCl) at doses of 1, 10 and 100 mg/kg alongside animals that received vehicle alone at a matched volume (n≧14 for each group). 15 minutes later methylscopolamine (1 mg/kg; to reduce peripheral muscarinic effects of pilocarpine) was administered followed, 45 minutes later by pilocarpine (380 mg/kg, IP) administration.

[2] = system: seizures in institutionalized children; details: 5 institutionalized children not responding to phenobarbital and phenytoin; cited from earlier work
[3] = system: penicillin-induced seizures; test: Penicillin-induced model of partial seizures; type: in vivo, rat; details: for development of the most severe seizures (tonic-clonic seizures without postural control): 150 IU penicillin
Description: CBD (1, 10 and 100 mg/kg) or CBD vehicle (1:1:18 ethanol:Cremophor: 0.9% w/v NaCl) was administered i.p. to adult male Wistar rats (>250 g). One week prior to this, animals had been surgically implanted with a cannula into the right lateral ventricle under anaesthesia. One hour after CBD administration, 150 IU penicillin was infused into the right lateral ventricle in 1.5 μl saline solution over one minute and seizure behaviour video recorded for two hours.
Following detailed examination of animal responses to penicillin alone (using data obtained from vehicle control groups, a finalised seizure scoring scale for penicillin-induced partial seizures has been derived. The following scoring system which was derived from several existing and published scoring systems for this model, will therefore be used for analysis of drug effects upon such seizures.

## CCCc1cc(O)c2c(c1)OC(C)(C)[C@@H]1CCC(C)=C[C@@H]21 [THCV, tetrahydrocannabivarin]
PTZ-induced seizures; pure THCV 0.025, 0.25, 2.5 mg/kg vs vehicle, 80 mg/kg PTZ
  latency to first manifestation of seizure-like behaviour: increased latency
PTZ-induced seizures; pure THCV all doses, 80 mg/kg PTZ, p=0.013 at highest dose
  latency to score of [5]: increased latencies, reaching a significant level at the highest dose of THCV
PTZ-induced seizures; pure THCV all doses, 80 mg/kg PTZ, p=0.017 at highest dose
  latency to score of [3]: increased latencies, reaching a significant level at the highest dose of THCV
PTZ-induced seizures; pure THCV highest dose 2.5 mg/kg, 80 mg/kg PTZ, p=0.02
  delay of seizure onset (latency to first seizure sign): delay of onset was significant
PTZ-induced seizures; pure THCV medium dose 0.25 mg/kg vs vehicle, 80 mg/kg PTZ, p=0.03
  duration of PTZ-induced seizures in animals that survived: significantly shorter
[1]; 0.25 mg/kg THCV
  percentage of animals showing bilateral forelimb clonus with rearing and falling: significant increase
[1]; THCV doses other than 0.25 mg/kg (0.025, 2.5 mg/kg)
  percentage of animals showing bilateral forelimb clonus with rearing and falling: this effect was not seen at any other dose
[1]; pure THCV 0.025, 0.25, 2.5 mg/kg IP
  latency to the onset of seizure: No significant effect
[1]; pure THCV 0.025, 0.25, 2.5 mg/kg
  mean maximum severity of seizure: no effect
[1]; pure THCV any dose
  percentage mortality vs control: No significant change
  percentage of animals showing bilateral forelimb clonus: no significant changes
  percentage of animals showing tonic-clonic seizures: no significant changes
  percentage of animals showing unilateral forelimb clonus: no significant changes

## CCCCCc1cc(O)c2c(c1)OC(C)(C)[C@@H]1CCC(C)=C[C@@H]21 [THC, tetrahydrocanibinol]
[2]
  seizure outcome: One became entirely free of seizures, one became almost completely free of seizures, and the other three did no worse than before

## C=C(C)[C@@H]1CCC(C)=C[C@H]1c1c(O)cc(CCCCC)cc1O [CBD, cannabidiol]
PTZ-induced seizures; 100 mg/kg CBD IP, 60 minutes before 80 mg/kg PTZ, p<0.001 vs vehicle
  animals that died (mortality): 6.7%
[3]; 10 mg/kg CBD vs vehicle, p=0.071
  frequency with which animals experienced the most severe seizures: near-significant effect
[3]; 100 mg/kg CBD i.p., p=0.001
  development of the most severe seizures (tonic-clonic seizures without postural control): completely prevented development
[3]; 100 mg/kg CBD vs vehicle, p=0.006
  frequency with which animals experienced the most severe seizures: significant decrease
[3]; 100 mg/kg CBD vs vehicle, p=0.012
  median severity of penicillin-induced seizures: significantly reduced
[3]; 100 mg/kg CBD, p=0.057
  mortality compared to vehicle: near-significant effect
[3]; 1 and 10 mg/kg CBD i.p., p=0.076 for both
  development of the most severe seizures (tonic-clonic seizures without postural control): Near-significant decreases
[3]; all doses of CBD (1, 10 and 100 mg/kg), p<0.001
  proportion of animals that remained seizure-free: significantly increased
[1]; 10 mg/kg CBD
  percentage mortality vs control: significant increase
[1]; CBD 1 mg/kg and 100 mg/kg
  percentage duration of time spent in a tonic-clonic state compared to the total duration of the seizure period: significantly reduced
  percentage of animals exhibiting tonic-clonic seizures: significantly reduced
[1]; CBD 1, 10, 100 mg/kg vs control
  mean frequency of all other seizure scores: no significant differences
[1]; CBD all doses tested (1, 10, 100 mg/kg)
  mean tonic-clonic frequency: significant reduction
[1]; CBD doses >1 mg/kg
  percentage of animals manifesting with bilateral forelimb clonus with rearing and falling: significantly reduces
  percentage of animals showing unilateral forelimb clonus: significant decreases
[1]; pure CBD 1, 10, 100 mg/kg IP
  latency to the onset of seizure: No significant effect
[1]; pure CBD 1, 10, 100 mg/kg
  mean maximum severity of seizure: no effect
  percentage of animals exhibiting bilateral forelimb clonus: no significant differences
